# From patent publication US20070128217A1 (priority 2003, published 2007)
# What was measured:
# [1] = tested on: rabbit serum obtained by immunizing a rabbit with the SARS-CoV strain Frankfurt 1; format: binding; set-up: Binding of a rabbit serum to linear peptides / Binding of a rabbit serum to looped peptides / Rabbit serum linear peptides / Rabbit serum looped peptides / Binding of a rabbit serum to linear peptides of protein N of SARS-CoV Urbani (Rabbit serum linear peptides) / Binding of a rabbit serum to looped/cyclic peptides of protein N of SARS-CoV Urbani (Rabbit serum looped peptides): unit not given here
# [2] = tested on: antibodies in sera from SARS patients (sera 1a, 1b, 2, 6, 37, 62, London, SARS-yellow, SARS-green); format: binding, human; set-up: Binding of serum 6 to linear peptides of protein X1 of SARS-CoV Urbani / Binding of serum 37 to linear peptides of protein X1 of SARS-CoV Urbani / Binding of serum 6 to looped/cyclic peptide (PEPSCAN-ELISA) / Binding of serum 37 to looped/cyclic peptide (PEPSCAN-ELISA) / Binding of serum 37 to looped/cyclic peptides of protein X1 of SARS-CoV Urbani / Binding of serum 6 to linear peptides of protein X2 / Binding of serum 37 to linear peptides of protein X2 / Binding of serum 37 to looped/cyclic peptides of protein X2 of SARS-CoV Urbani / Binding of serum 6 to linear peptides of protein M of SARS-CoV Urbani / Binding of serum 37 to linear peptides of protein M of SARS-CoV Urbani / Binding of serum 6 to looped/cyclic peptides of protein M of SARS-CoV Urbani / Binding of serum 37 to looped/cyclic peptides of protein M of SARS-CoV Urbani / Binding of serum 6 to linear peptides of protein X3 of SARS-CoV Urbani / Binding of serum 37 to linear peptides of protein X3 of SARS-CoV Urbani / Binding of serum 37 to looped/cyclic peptides of protein X3 of SARS-CoV Urbani / Binding of serum 6 to linear peptides of protein X4 of SARS-CoV Urbani / Binding of serum 37 to linear peptides of protein X4 of SARS-CoV Urbani / Binding of serum 37 to looped/cyclic peptides of protein X4 of SARS-CoV Urbani / Binding of serum 6 to linear peptides of protein X5 of SARS-CoV Urbani / Binding of serum 37 to linear peptides of protein X5 of SARS-CoV Urbani / Binding of serum 37 to looped/cyclic peptides of protein X5 of SARS-CoV Urbani / Binding of serum 6 to linear peptides of protein N of SARS-CoV Urbani / Binding of serum 37 to linear peptides of protein N of SARS-CoV Urbani / Binding of serum 6 to linear peptide (PEPSCAN-ELISA) / Binding of serum 1a to looped/cyclic peptides of protein N of SARS-CoV Urbani / Binding of serum 1b to looped/cyclic peptides of protein N of SARS-CoV Urbani / Binding of serum 2 to looped/cyclic peptides of protein N of SARS-CoV Urbani / Binding of serum 6 to looped/cyclic peptides of protein N of SARS-CoV Urbani / Binding of serum 37 to looped/cyclic peptides of protein N of SARS-CoV Urbani / Binding of serum 62 to looped/cyclic peptides of protein N of SARS-CoV Urbani / Binding of serum London to looped/cyclic peptides of protein N of SARS-CoV Urbani / Binding of serum SARS-green to looped/cyclic peptides of protein N of SARS-CoV Urbani: unit not given here
# [3] = tested on: control sera (pooled serum of ten healthy LUMC hospital workers; commercial negative donor pooled serum from the Dutch bloodbank); format: binding, human; set-up: Binding of Control serum LUMC to linear peptides / Binding of Control serum Blood-bank to linear peptides / Binding of Control serum LUMC to looped peptides / Binding of Control Serum Blood-Bank to Looped peptides / Binding of Control serum LUMC to linear peptides of the protein M of SARS-CoV Urbani / Binding of Control serum Blood-bank to linear peptides of the protein M of SARS-CoV Urbani / Binding of Control serum LUMC to looped peptides of the protein M of SARS-CoV Urbani / Binding of Control Serum Blood-Bank to Looped peptides of the protein M of SARS-CoV Urbani: unit not given here
Sequence,Binding of a rabbit serum to linear peptides [1],Binding of a rabbit serum to looped peptides [1],Binding of Control Serum Blood-Bank to Looped peptides [3],Binding of Control serum Blood-bank to linear peptides [3],Binding of Control serum LUMC to linear peptides [3],Binding of Control serum LUMC to looped peptides [3],Binding of serum 1a to linear peptides of protein X1 of SARS-CoV Urbani [2],Binding of serum 1b to linear peptides of protein X1 of SARS-CoV Urbani [2],Binding of serum 2 to linear peptides of protein X1 of SARS-CoV Urbani [2],Binding of serum 6 to linear peptides of protein X1 of SARS-CoV Urbani [2],Binding of serum 37 to linear peptides of protein X1 of SARS-CoV Urbani [2],Binding of serum 62 to linear peptides of protein X1 of SARS-CoV Urbani [2],Binding of serum London to linear peptides of protein X1 of SARS-CoV Urbani [2],Binding of serum SARS-green to linear peptides of protein X1 of SARS-CoV Urbani [2],Binding of serum SARS-yellow to linear peptides of protein X1 of SARS-CoV Urbani [2],Binding of serum 1a to looped/cyclic peptides of protein X1 of SARS-CoV Urbani [2],Binding of serum 1b to looped/cyclic peptides of protein X1 of SARS-CoV Urbani [2],Binding of serum 2 to looped/cyclic peptides of protein X1 of SARS-CoV Urbani [2],Binding of serum 6 to looped/cyclic peptides of protein X1 of SARS-CoV Urbani [2],Binding of serum 37 to looped/cyclic peptides of protein X1 of SARS-CoV Urbani [2],other results
MMSRRRLLACLCKHK,0.4,0.3,0.2,0.8,0.5,0.2,,,,,,,,,,,,,,,"Binding of serum 1a to looped/cyclic peptides of protein X2 of SARS-CoV Urbani [2]: 0.2; Binding of serum 1b to looped/cyclic peptides of protein X2 of SARS-CoV Urbani [2]: 0.2; Binding of serum 2 to looped/cyclic peptides of protein X2 of SARS-CoV Urbani [2]: 0.1; Binding of serum 6 to looped/cyclic peptides of protein X2 of SARS-CoV Urbani [2]: 0.0; Binding of serum 37 to looped/cyclic peptides of protein X2 of SARS-CoV Urbani [2]: 0.2; Binding of serum 62 to looped/cyclic peptides of protein X2 of SARS-CoV Urbani [2]: 0.3; Binding of serum London to looped/cyclic peptides of protein X2 of SARS-CoV Urbani [2]: 0.1; Binding of serum SARS-green to looped/cyclic peptides of protein X2 of SARS-CoV Urbani [2]: 0.1; Binding of serum SARS-yellow to looped/cyclic peptides of protein X2 of SARS-CoV Urbani [2]: 0.2; Recognition of the peptide by sera of SARS-CoV infected individuals, and form (linear, looped/cyclic) in which it is recognized [2]: recognized in linear form"
TIYSHLLLVAAGMEA,0.1,0.4,0.5,0.4,0.4,0.6,0.6,0.5,0.4,0.3,0.5,0.4,0.2,0.3,0.5,,,,,,Binding of serum 1a to looped/cyclic peptide (PEPSCAN-ELISA) [2]: 0.5; Binding of serum 1b to looped/cyclic peptide (PEPSCAN-ELISA) [2]: 0.4; Binding of serum 2 to looped/cyclic peptide (PEPSCAN-ELISA) [2]: 0.3; Binding of serum 6 to looped/cyclic peptide (PEPSCAN-ELISA) [2]: 0.3; Binding of serum 37 to looped/cyclic peptide (PEPSCAN-ELISA) [2]: 0.5; Binding of serum 62 to looped/cyclic peptide (PEPSCAN-ELISA) [2]: 0.5; Binding of serum London to looped/cyclic peptide (PEPSCAN-ELISA) [2]: 0.2; Binding of serum SARS-green to looped/cyclic peptide (PEPSCAN-ELISA) [2]: 0.2; Binding of serum SARS-yellow to looped/cyclic peptide (PEPSCAN-ELISA) [2]: 0.3
PPNVQIHTIDGSSGV,0.1,0.5,0.5,0.5,0.5,0.7,0.6,0.5,0.4,0.4,0.7,0.6,0.3,0.3,0.4,0.5,0.4,0.3,0.4,0.6,Binding of serum 62 to looped/cyclic peptides of protein X1 of SARS-CoV Urbani [2]: 0.5; Binding of serum London to looped/cyclic peptides of protein X1 of SARS-CoV Urbani [2]: 0.2; Binding of serum SARS-green to looped/cyclic peptides of protein X1 of SARS-CoV Urbani [2]: 0.4; Binding of serum SARS-yellow to looped/cyclic peptides of protein X1 of SARS-CoV Urbani [2]: 0.3
QITTDTGIENATFFI,0.1,1.5,0.5,0.5,0.6,0.8,0.7,0.6,0.4,0.4,0.6,0.4,0.3,0.3,0.3,0.7,0.7,0.6,0.5,1.0,Binding of serum 62 to looped/cyclic peptides of protein X1 of SARS-CoV Urbani [2]: 0.9; Binding of serum London to looped/cyclic peptides of protein X1 of SARS-CoV Urbani [2]: 0.3; Binding of serum SARS-green to looped/cyclic peptides of protein X1 of SARS-CoV Urbani [2]: 0.5; Binding of serum SARS-yellow to looped/cyclic peptides of protein X1 of SARS-CoV Urbani [2]: 0.5
SVTDTIVVTEGDGIS,0.1,0.4,0.3,0.4,0.4,0.3,0.6,0.5,0.4,0.4,0.5,0.5,0.2,0.1,0.4,0.3,0.2,0.1,0.1,0.3,Binding of serum 62 to looped/cyclic peptides of protein X1 of SARS-CoV Urbani [2]: 0.3; Binding of serum London to looped/cyclic peptides of protein X1 of SARS-CoV Urbani [2]: 0.1; Binding of serum SARS-green to looped/cyclic peptides of protein X1 of SARS-CoV Urbani [2]: 0.2; Binding of serum SARS-yellow to looped/cyclic peptides of protein X1 of SARS-CoV Urbani [2]: 0.2
